Reference: patent publication US12352767B2, “Method of treating cognitive decline associated with neurological diseases based on a decrease in FLT4 expression or activity” (University of Virginia Patent Foundation, priority 2018, dated 2025)
“Also recorded” adds a separate entry of the source.

Legend:
[1] = test system: meningeal lymphatic drainage; assay: Drainage of CSF tracer (OVA-A647) into deep cervical lymph nodes; format: in vivo, mice; settings: 7 days after Visudyne/photoconversion, 2 h after i.c.m. tracer, vs control groups
Method: Mice were anaesthetized by intraperitoneal (i.p.) injection of a mixed solution of ketamine (100 mg/Kg) and xylazine (10 mg/Kg) in saline. The skin of the neck was shaved and cleaned with iodine and 70% ethanol, ophthalmic solution placed on the eyes to prevent drying and the mouse's head was secured in a stereotaxic frame. After making a skin incision, the muscle layers were retracted and the cisterna magna exposed. Using a Hamilton syringe (coupled to a 33-gauge needle), the volume of the desired tracer solution was injected into the CSF-filled cisterna magna compartment. For brain CSF influx and lymphatic drainage experiments, 2 or 5 μL of Alexa Fluor® 594 or 647 conjugated OVA (Thermo Fisher Scientific), at 0.5 mg/mL in artificial CSF (#597316, Harvard Apparatus U.K.), were injected at a rate of 2.5 μL/min. After injecting, the syringe was left in place for additional 2 min to prevent back-flow of CSF.

brain parenchyma = assay: Efflux of fluorescent tracers injected into the brain parenchyma; format: in vivo, mice; settings: 7 days after Visudyne/photoconversion, vs both control groups
Method: An incision was made in the skin to expose the skull and a hole was drilled at +1.5 mm in the anterior-posterior axis and −1.5 mm in the medial-lateral axis relative to bregma. Then, using a Hamilton syringe (coupled to a 33-gauge needle) placed at +2.5 mm in the dorsal-ventral axis (relative to bregma), 1 μL of either Alexa Fluor® 647 conjugated OVA (at 0.5 mg/mL), HiLyte™ Fluor 647 conjugated Aβ42 (at 0.05 μg/mL, AnaSpec, Inc.) or BODIPY™ FL conjugated low density lipoprotein (LDL) from human plasma (at 0.1 mg/mL, Thermo Fisher Scientific) in artificial CSF were injected at a rate of 0.2 μL/min into the brain parenchyma. […] After injecting, the syringe was left in place for additional 5 min to prevent back-flow.

[2] = test system: hippocampal transcriptome; assay: RNA-seq of whole hippocampus after meningeal lymphatic ablation (Table 2, Table 3); format: in vivo, mice
Method: After defrosting in ice, samples were mechanically dissociated in extraction buffer and RNA was isolated using the kit components according to the manufacturer's instructions (RNeasy mini kit, cat. no. 74106, Qiagen). The Illumina TruSeq Stranded Total RNA Library Prep Kit was used for cDNA library preparation from total RNA samples. Sample quality control was performed on an Agilent 4200 TapeStation Instrument, using the Agilent D1000 kit, and on the Qubit Fluorometer (Thermo Fisher Scientific). For RNA sequencing (RNA-seq), libraries were loaded on to a NextSeq 500 (Illumina) using an Illumina NextSeq High Output (150 cycle) cartridge (#FC-404-2002).
The raw sequencing reads (FASTQ files) were first chastity filtered, which removes any clusters that have a higher than expected intensity of the called base compared to other bases. The quality of the reads was then evaluated using FastQC^57, and after passing quality control (QC), the expression of the transcripts was quantified against the UCSC mm10 genome^58 using Salmon^59. These transcript abundances were then imported into R and summarized with tximport^60, and then DESeq2^61 was used to normalize the raw counts, perform exploratory analysis (e.g., principal component analysis), and to perform differential expression (DE) analysis. Before DE analysis of the meningeal LECs from adult vs old mice dataset, surrogate variable analysis^62 (SVA) was used to identify and adjust for latent sources of unwanted variation as implemented in the SVA package^63. The P-values from the DE analysis were corrected for multiple hypothesis testing with the Benjamini-Hochberg false discovery rate procedure (adj. P-value). Functional enrichment of DE genes, using gene sets from Gene Ontology (GO) and Kyoto Encyclopedia of Genes and Genomes (KEGG), was determined with Fisher's exact test as implemented in the clusterProfiler^64 Bioconductor package. Heatmaps of the DE genes and enriched gene sets were generated with the R package pheatmap^65. Normalized counts of selected transcripts were used to calculate the fold change relative to respective controls.

J20 mice = assay: Amyloid pathology in meninges and hippocampus of J20 mice (Aβ immunostaining); format: in vivo
Method: Male or female wild-type mice (C57BL/6J background) were either bred in-house, purchased from the Jackson Laboratory (Bar Harbor, Maine, USA) or provided by the National Institutes of Health/National Institute on Aging (Bethesda, MD, USA). All mice were maintained in the animal facility for habituation for at least 1 week prior to the start of the manipulation/experimentation. C57BL/6J wild-type mice were tested at 2-3, 12-14 and 20-24 months of age. Male hemizygous B6.Cg-Tg(PDGFB-APPSwInd)20Lms/2Mmjax (J20, JAX stock #006293) and B6.Cg-Tg(APPSwFILon,PSEN1*M146L*L286V)6799Vas/Mmjax (5×FAD, JAX stock #008730) were purchased from the Jackson Laboratory and bred in-house on a C57BL/6J background. […] 5×FAD hemizygous mice overexpress the transgene constructs under neural-specific elements of the mouse thymocyte differentiation antigen 1 promoter and present accelerated accumulation of Aβ42 and deposition of amyloid and gliosis in the brain starting at 2 months of age, with dramatic amyloid plaque load without major behavioral deficits at 5 months^45. In-house bred male transgene carriers and non-carrier (WT) littermates were used at different ages that are indicated throughout the manuscript. […]

[3] = test system: brain/meningeal vasculature; assay: Photoacoustic imaging of brain/meningeal blood flow and oxygenation; format: in vivo; settings: 5xFAD mice, 1 week after Visudyne/photoconversion
From the text: Adult mice were maintained under anesthesia with 1.5% isoflurane and at a constant body temperature with the aid of a heating pad. A surgical incision was made in the scalp and the fascia was removed to expose the skull. One day prior to the imaging, the skull over the region of interest was thinned to the desired thickness (˜100 μm). Mice were then imaged by multi-parametric photoacoustic microscopy, which is capable of simultaneously image oxygen saturation of hemoglobin (sO2) and blood flow speed as described previously^50. Using the oxy-hemoglobin and deoxy-hemoglobin values, recorded using two nanosecond-pulsed lasers (532 and 559 nm), it is possible to compute the final sO2. Correlation analysis of adjacent A-line signals allows the quantification of blood flow speed within individual vessels. By segmenting major vessels within the region of interest, average values of the blood flow speed and sO2 were extracted for quantitative analysis.

[4] = after meningeal lymphatic ablation (Visudyne/photoconversion) and MWM

Substance: verteporfin [Visudyne]
- OVA-A647 drainage from CSF into dCLNs (area fraction) [1]: significant reduction; also recorded: significantly less amount of tracer
- levels of remaining tracers in brain parenchyma (Aβ42-HiLyte647, OVA-A647, LDL-BODIPY FL) (brain parenchyma; one hour after stereotaxic injection): higher levels of remnants
- Aβ42-HiLyte647 area fraction in the injected brain hemisphere (brain parenchyma): significantly higher level
- LDL-BODIPY FL area fraction in the injected brain hemisphere (brain parenchyma): significantly higher level
- OVA-A647 area fraction in the injected brain hemisphere (brain parenchyma): significantly higher level
- number of genes down-regulated in the hippocampus [2, 4]: 2138 genes
- number of genes up-regulated in the hippocampus [2, 4]: 1599 genes
- hippocampal transcriptome (RNA-seq principal component analysis) without MWM ([2]; four weeks of meningeal lymphatic ablation, Visudyne/photoconversion vs vehicle/photoconversion): did not induce significant changes; also recorded: did not show a differential clustering
- hippocampal gene expression (RNA-seq) after MWM performance ([2]; prolonged meningeal lymphatic ablation, Visudyne/photoconversion vs vehicle/photoconversion): significant differences in hippocampal gene expression; also recorded: differential clustering
- Aβ aggregates / amyloid deposition in the meninges (J20 mice; Visudyne/photoconversion every 3 weeks for 3 months): Aβ aggregates had formed in the meninges; also recorded: marked amyloid deposition
- Aβ plaque load (coverage) in the hippocampi (J20 mice; Visudyne/photoconversion for 3 months vs vehicle): significantly increased; also recorded: statistically significant increase in coverage
- blood flow in brain/meninges [3]: no differences; also recorded: did not affect
- blood oxygenation in brain/meninges [3]: no differences; also recorded: did not affect
